Measured values: ChEMBL document CHEMBL5518172, “Discovery of hydroxamate as a promising scaffold dually inhibiting metallo- and serine-β-lactamases” (Eur J Med Chem, 2024)
Calls of active or inactive are those of the source. No cut-off for these calls is given here.

Assays:
Escherichia coli [1] = assay: Synergistic antibacterial activity against Escherichia coli clinical isolate 10 assessed as fold decrease in meropenem MIC at 64 microg/ml measured after 16 hrs by CLSI protocol based broth microdilution method; format: functional; conditions: dose 64 µg/ml
[2] = Inhibition of recombinant serine beta lactamase KPC-2 (unknown origin) expressed in Escherichia coli BL21 (DE3) cells using meropenem as substrate by spectrometric analysis; parameters: species or system Bacteria
Bacteria [3] = assay: Inhibition of recombinant serine beta lactamase OXA-48 (unknown origin) expressed in Escherichia coli BL21 (DE3) cells using cefazolin as substrate assessed as reduction in residual activity; conditions: dose 0.075-20 µM
Escherichia coli [4] = assay: Synergistic antibacterial activity against Escherichia coli harboring NDM-1 infected in Kunming mouse model assessed as reduction in bacterial load in liver at 20 mg/kg, ip co-administered with 10 mg/kg of meropenem; format: functional, organism-based
Bacteria [5] = assay: Inhibition of recombinant serine beta lactamase KPC-2 (unknown origin) expressed in Escherichia coli BL21 (DE3) cells using cefazolin as substrate assessed as reduction in residual activity; conditions: dose 0.075-20 µM
Escherichia coli [6] = assay: Synergistic antibacterial activity against Escherichia coli clinical isolate 10 assessed as meropenem MIC at 64 microg/ml measured after 16 hrs by CLSI protocol based broth microdilution method (reference value: 512 microg/ml); format: functional; conditions: dose 64 µg/ml
Escherichia coli [7] = assay: Synergistic antibacterial activity against Escherichia coli BL21 (DE3) harboring metallo-beta lactamase IMP-1 assessed as fold decrease in meropenem MIC at 64 microg/ml measured after 16 hrs by CLSI protocol based broth microdilution method; format: functional; conditions: dose 64 µg/ml
Escherichia coli [8] = assay: Synergistic antibacterial activity against Escherichia coli clinical isolate 08 assessed as meropenem MIC at 64 microg/ml measured after 16 hrs by CLSI protocol based broth microdilution method (reference value: 128 microg/ml); format: functional; conditions: dose 64 µg/ml
Escherichia coli [9] = assay: Antibacterial activity against Escherichia coli harboring NDM-1 infected in Kunming mouse model assessed as reduction in bacterial load in liver at 20 mg/kg, ip; format: functional, organism-based
Escherichia coli [10] = assay: Synergistic antibacterial activity against Escherichia coli clinical isolate 10 assessed as decrease in bacterial colony at 128 microg/ml incubated for 12 hrs in presence of meropenem by imaging analysis; format: functional, organism-based; conditions: dose 128.0 µg/ml
Bacteria [11] = assay: Irreversible inhibition of recombinant metallo-beta-lactamase IMP-1 (unknown origin) expressed in Escherichia coli BL21 (DE3) cells using cefazolin as substrate assessed as reduction in residual activity at 5 uM preincubated for 6 hrs followed by dialysis and measured after 24 hrs
Bacteria [12] = assay: Inhibition of recombinant metallo-beta-lactamase L-1 (unknown origin) expressed in Escherichia coli BL21 (DE3) cells using cefazolin as substrate at 20 uM by spectrometric analysis relative to control
Bacteria [13] = assay: Inhibition of recombinant metallo-beta-lactamase IMP-1 (unknown origin) expressed in Escherichia coli BL21 (DE3) cells using cefazolin as substrate assessed as reduction in residual activity; conditions: dose 0.075-20 µM
[14] = target: Metallo-beta-lactamase type 2 (Bacteria, UniProt C7C422); assay: Non-competitive inhibition of recombinant NDM-1 (unknown origin) expressed in Escherichia coli BL21 (DE3) cells using meropenem as substrate assessed as inhibition constant by Lineweaver-Burk plot analysis
Escherichia coli [15] = assay: Synergistic antibacterial activity against Escherichia coli BL21 (DE3) harboring NDM-1 assessed as meropenem MIC at 64 microg/ml measured after 16 hrs by CLSI protocol based broth microdilution method (reference value: 256 microg/ml); format: functional; conditions: dose 64 µg/ml
Escherichia coli [16] = assay: Synergistic antibacterial activity against Escherichia coli clinical isolate 04 assessed as fold decrease in meropenem MIC at 64 microg/ml measured after 16 hrs by CLSI protocol based broth microdilution method; format: functional; conditions: dose 64 µg/ml
Escherichia coli [17] = assay: Antibacterial activity against Escherichia coli BL21 (DE3) harboring serine beta lactamase OXA-48 assessed as inhibition of bacterial growth upto 512 microg/ml by microdilution checkerboard assay; format: functional, organism-based; conditions: dose <= 512.0 µg/ml
Bacteria [18] = assay: Inhibition of recombinant serine beta lactamase OXA-48 (unknown origin) expressed in Escherichia coli BL21 (DE3) cells using meropenem as substrate at 20 uM by spectrometric analysis relative to control
Escherichia coli [19] = assay: Antibacterial activity against Escherichia coli BL21 (DE3) harboring metallo-beta-lactamase IMP-1 assessed as inhibition of bacterial growth upto 512 microg/ml by microdilution checkerboard assay; format: functional, organism-based; conditions: dose <= 512.0 µg/ml
Escherichia coli [20] = assay: Synergistic antibacterial activity against Escherichia coli clinical isolate 07 assessed as meropenem MIC at 64 microg/ml measured after 16 hrs by CLSI protocol based broth microdilution method (reference value: 128 microg/ml); format: functional; conditions: dose 64 µg/ml
Escherichia coli [21] = assay: Synergistic antibacterial activity against Escherichia coli BL21 (DE3) harboring NDM-1 assessed as decrease in bacterial colony at 128 microg/ml incubated for 12 hrs in presence of meropenem by imaging analysis; format: functional, organism-based; conditions: dose 128.0 µg/ml
Bacteria [22] = assay: Destabilization of recombinant serine beta lactamase OXA-48 (unknown origin) expressed in Escherichia coli BL21 (DE3) cells assessed as thermal stabilization by measuring melting temperature at 50 uM incubated under 25 to 80 degreeC by SYPRO orange dye based thermal shift assay (reference value: 54.6 degreeC)
Bacteria [23] = assay: Inhibition of recombinant IMP-1 (unknown origin) expressed in Escherichia coli BL21 (DE3) cells assessed as reduction in residual activity at 0.25 to 5 uM; conditions: dose 0.25-5 µM, time 20.0 hrs, TDE = time-dependent effect
Bacteria [24] = assay: Inhibition of recombinant metallo-beta-lactamase IMP-1 (unknown origin) expressed in Escherichia coli BL21 (DE3) cells using cefazolin as substrate assessed as residual activity at 20 uM relative to control
Bacteria [25] = assay: Destabilization of recombinant serine beta lactamase KPC-2 (unknown origin) expressed in Escherichia coli BL21 (DE3) cells assessed as thermal stabilization by measuring melting temperature at 50 uM incubated under 25 to 80 degreeC by SYPRO orange dye based thermal shift assay (reference value: 55.4 degreeC)
Bacteria [26] = assay: Inhibition of recombinant serine beta lactamase OXA-48 (unknown origin) expressed in Escherichia coli BL21 (DE3) cells using cefazolin as substrate assessed as residual activity at 20 uM relative to control
Bacteria [27] = assay: Inhibition of recombinant serine beta lactamase OXA-48 (unknown origin) expressed in Escherichia coli BL21 (DE3) cells assessed as reduction in residual activity incubated for 120 min; conditions: dose 0.3-5 µM
Bacteria [28] = assay: Inhibition of recombinant serine beta lactamase OXA-48 (unknown origin) expressed in Escherichia coli BL21 (DE3) cells assessed as reduction in residual activity at 0.3 to 5 uM; conditions: dose 0.3-5 µM, time 120.0 min, TDE = time-dependent effect
Escherichia coli [29] = assay: Synergistic antibacterial activity against Escherichia coli BL21 (DE3) harboring metallo-beta-lactamase IMP-1 assessed as decrease in bacterial colony at 128 microg/ml incubated for 12 hrs in presence of meropenem by imaging analysis; format: functional, organism-based; conditions: dose 128.0 µg/ml
[30] = target: Metallo-beta-lactamase type 2 (Bacteria) (UniProt C7C422); assay: Inhibition of recombinant NDM-1 (unknown origin) expressed in Escherichia coli BL21 (DE3) cells using meropenem as substrate assessed as reduction in residual activity; conditions: dose 0.075-20 µM
[31] = target: Metallo-beta-lactamase type 2 (Bacteria) (UniProt C7C422); assay: Inhibition of recombinant NDM-1 (unknown origin) expressed in Escherichia coli BL21 (DE3) cells assessed as maximal inhibition at 5 uM incubated for 5 hrs

Chain of Metallo-beta-lactamase type 2 (Bacteria) (C7C422 whole entry): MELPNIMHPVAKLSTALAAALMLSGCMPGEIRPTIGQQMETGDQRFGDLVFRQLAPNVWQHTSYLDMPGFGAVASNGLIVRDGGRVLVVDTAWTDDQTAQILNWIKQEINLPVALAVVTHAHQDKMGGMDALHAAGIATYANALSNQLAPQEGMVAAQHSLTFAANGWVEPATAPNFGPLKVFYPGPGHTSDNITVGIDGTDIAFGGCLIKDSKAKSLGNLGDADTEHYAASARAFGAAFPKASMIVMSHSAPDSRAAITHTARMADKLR
Chain of Metallo-beta-lactamase type 2 (C7C422 whole entry): as above

**Q.** For `O=C(CCCc1ccccc1)NOC(=O)OCc1ccccc1`, which “fold change (FC)” value (Escherichia coli [1]) is on record?
**A.** Its value is 2.

**Q.** What about the IC50 [2] of the same compound?
**A.** Its IC50 is 570 nM.

**Q.** And the inhibition (Bacteria [3])?
**A.** Its inhibition is “Dose-Dependent Effect”.

**Q.** What about the Activity (Escherichia coli [4]) of the same compound?
**A.** The Activity was “Active”.

**Q.** What about the inhibition (Bacteria [5]) of the same compound?
**A.** Its inhibition is “Dose-Dependent Effect”.

**Q.** What about the MIC (Escherichia coli [6]) of the same compound?
**A.** Its MIC is 64 µg/mL.

**Q.** And the “fold change (FC)” value (Escherichia coli [7])?
**A.** The value was 4.

**Q.** And the MIC (Escherichia coli [8])?
**A.** The MIC was 64 µg/mL.

**Q.** And the Activity (Escherichia coli [9])?
**A.** Its Activity is “inactive”.

**Q.** And the Activity (Escherichia coli [10])?
**A.** Its Activity is “Active”.

**Q.** And the inhibition (Bacteria [11])?
**A.** Its inhibition is “Active”.

**Q.** What about the inhibition (Bacteria [12]) of the same compound?
**A.** The inhibition was under 42%.

**Q.** And the inhibition (Bacteria [13])?
**A.** The inhibition was “Dose-Dependent Effect”.

**Q.** What about the Ki [14] of the same compound?
**A.** The Ki was 2500 nM.

**Q.** What about the MIC (Escherichia coli [15]) of the same compound?
**A.** Its MIC is 32 µg/mL.

**Q.** What about the “fold change (FC)” value (Escherichia coli [16]) of the same compound?
**A.** Its value is 2.

**Q.** And the Activity (Escherichia coli [17])?
**A.** Its Activity is “inactive”.

**Q.** What about the inhibition (Bacteria [18]) of the same compound?
**A.** Its inhibition is over 90%.

**Q.** And the Activity (Escherichia coli [19])?
**A.** Its Activity is “inactive”.

**Q.** And the MIC (Escherichia coli [20])?
**A.** The MIC was 128 µg/mL.

**Q.** And the Activity (Escherichia coli [21])?
**A.** The Activity was “Active”.

**Q.** And the Tm (Bacteria [22])?
**A.** Its Tm is 53.9 °C.

**Q.** What about the inhibition (Bacteria [23]) of the same compound?
**A.** Its inhibition is “Tde”.

**Q.** And the Activity (Bacteria [24])?
**A.** The Activity was under 10%.

**Q.** What about the Tm (Bacteria [25]) of the same compound?
**A.** Its Tm is 51.4 °C.

**Q.** What about the Activity (Bacteria [26]) of the same compound?
**A.** Its Activity is under 10%.

**Q.** And the inhibition (Bacteria [27])?
**A.** Its inhibition is “Dose-Dependent Effect”.

**Q.** And the inhibition (Bacteria [28])?
**A.** The inhibition was “Tde”.

**Q.** And the Activity (Escherichia coli [29])?
**A.** Its Activity is “Active”.

**Q.** And the inhibition [30]?
**A.** The inhibition was “Dose-Dependent Effect”.

**Q.** What about the inhibition [31] of the same compound?
**A.** The inhibition was “Active”.
